The values that follow come from article PMC3155816 (Journal of medicinal chemistry, 2011).

Values after ≈ are worked out from the molar mass of the structure shown. Values joined by “and” are separate entries in the source; they are usually repeats but may differ in a detail not shown here. Equal entries are not always repeated. Bounds are passed on as bounds.

The subject of data set [1] is Vaccinia virus (WR strain). The data set can be described thus: microbe, parasite or virus in culture. The following applies: Orthopoxvirus vaccinia, BSC-1, read-out: Plaque Reduction EC50. The class given is cell-based.
A short description of data set [2]: Cytotoxicity by LDH release. Format: cell-based. The following applies: African green monkey, BSC-1 cells.
A further data set addresses vaccinia virus D4 (Vaccinia virus, UniProt P04303). Format: binding.
Data set [3] concerns the target vaccinia E9 DNA polymerase with A20 and D4 (processivity complex) (Vaccinia virus, UniProt P04303). In words: biochemical.
A short description of data set [4]: Solubility in PBS by chemiluminescence of total nitrogen. Format: physicochemical.

With `Cc1ccc2oc(-c3ccc(Cl)cc3)c(O)c(=O)c2c1` [Compound 5], the EC50 in data set [1] is no less than 200 µM.
In turn, `O=C1c2ccccc2-c2onc3c(NCCO)cc(NC4CCCCC4)c1c23` [Compound 9, 10-(cyclohexylamino)-12-[(2-hydroxyethyl)amino]-15-oxa-14-azatetracyclohexadeca-1(16),2,4,6,9,11,13-heptaen-8-one] showed a CC50 at 20 h in data set [2] of 127 µM. For the same compound, at vaccinia virus D4, the Tm amounted to 51.4 ± 9.1 °C and the ΔTm amounted to 13.1 °C. In addition, in data set [1], the EC50 turned out to be 8.1 µM. Also, the IC50 in data set [3] was determined as 34.1 µM. Also, the solubility in data set [4] was 1.4 µg/mL and 3.6 µM.
With `Oc1ccc(NCc2ccccc2OCc2ccccc2)cc1` [Compound 10, 4-({[2-(benzyloxy)phenyl]methyl}amino)phenol], the EC50 in data set [1] was 9.8 µM. For the same compound, the concentration in solution in data set [4] (solubility) was 3.5 µM (≈ 1.07 µg/mL).
Regarding `COc1ccc(Nc2nc(Nc3ccc(OC)cc3OC)nc(N3CCOCC3)n2)c(OC)c1` [Compound 12], the EC50 in data set [1] was no less than 200 µM.
Take `Cn1c(=O)n(C)c2cc(NS(=O)(=O)c3ccc(C(C)(C)C)cc3)c(NCc3ccccc3)cc21` [Compound 14, N-[6-(benzylamino)-1,3-dimethyl-2-oxo-2,3-dihydro-1H-1,3-benzodiazol-5-yl]-4-tert-butylbenzene-1-sulfonamide]: in data set [4], the solubility worked out at 1.9 µM (≈ 0.909 µg/mL).
With `Cc1cc2n(n1)C(c1cc(C(C)(C)C)c(O)cc1O)Nc1ccccc1-2` (stereo not shown) [Compound 15, 4-tert-butyl-6-{2-methyl-5H,6H-pyrazolo[1,5-c]quinazolin-5-yl}benzene-1,3-diol], in data set [1], the EC50 was determined as 23.3 µM. Besides, in data set [4], the solubility is 54.7 µM (≈ 19.1 µg/mL).
Consider `COc1ccc(C)cc1N(CC(=O)N1CCC(C)CC1)S(=O)(=O)c1ccc(C)cc1` [Compound 26], for which the EC50 in data set [1] is no less than 200 µM.
Turning to `COc1cc(-c2nc(-c3ccccc3)c(-c3ccc(Br)cc3)[nH]2)cc(OC)c1O` [Compound 27, 4-[5-(4-bromophenyl)-4-phenyl-1H-imidazol-2-yl]-2,6-dimethoxyphenol], in data set [1], the EC50 was determined as 22.4 µM. For the same compound, the solubility in data set [4] stood at 3.2 µM (≈ 1.44 µg/mL).
